Key:
[1] = tested on: recurrence of hepatocellular carcinoma; assay: Clinical test of recurrence of hepatocellular carcinoma after radical treatment in HCV-positive subjects (dynamic CT every 12 weeks, log-rank test); type: in vivo, human; conditions: for 50% Recurrence free interval / 75% Recurrence free interval: peroral, 96 weeks, in combination with branched-chain amino acid preparation
Procedure: Peretinoin produced through a known method was used as an acyclic retinoid. A commercial preparation containing isoleucine, leucine, and valine in combination was used as a branched-chain amino acid.
Forty-six subjects (age: 49 to 80) were tested. […] As a preparation containing a branched-chain amino acid, Aminoleban (registered trademark) EN combination powder or Livact (registered trademark) combination granules were administered in a specific amount during the test period. The daily dose of Aminoleban was 150 g (the daily dose including L-isoleucine (5.7675 g), L-leucine (6.111 g), and L-valine (4.806 g)), and that of Livact was 12.45 g (the daily dose including L-isoleucine (2.856 g), L-leucine (5.712 g), and L-valine (3.432 g)). As an acyclic retinoid, peretionin, was administered to the subjects in combination with the branched-chain amino acid. The subjects were divided into the following groups:
1: peretinoin 600 mg (daily dose, the same applies hereinafter) combination group: 18 subjects (male: 11, female: 7),
2: peretinoin 300 mg combination group: 15 subjects (male: 9, female: 6), and
3: branched-chain amino acid sole administration group: 13 subjects (male: 8, female: 5).
The daily dose of peretinoin was divided into two portions. On each day during 96 weeks after start of the test, peretinoin was perorally administered after meal.
Radical curing and recurrence of hepatocellular carcinoma were confirmed through dynamic CT measured every 12 weeks after the start of the test. The combinatory effect on cumulative recurrence free rate was evaluated through the log-rank test.

[2] = tested on: recurrence of hepatocellular carcinoma; conditions: clinical study, cited from earlier work
liver cancer cells = conditions: cited from earlier work
[3] = peretinoin 300 mg daily, 15 HCV-positive subjects
[4] = peretinoin 600 mg daily, 18 HCV-positive subjects

Row | SMILES | 50% Recurrence free interval [1, 3] [days] | 75% Recurrence free interval [1, 3] [days] | extension of 75% recurrence free interval compared with the sole branched-chain amino acid administration group ([1]; peretinoin 300 mg in combination with branched-chain amino acid) [days] | cumulative recurrence free rate (FIG. 1) ([1]; peretinoin 600 mg and 300 mg combination groups with branched-chain amino acid) | cumulative recurrence free rate compared with the sole branched-chain amino acid administration group ([1]; peretinoin 600 mg combination group, Log-rank test) | 50% Recurrence free interval [1, 4] [days] | 75% Recurrence free interval [1, 4] [days] | extension of 75% recurrence free interval compared with the sole branched-chain amino acid administration group ([1]; peretinoin 600 mg in combination with branched-chain amino acid) [days] | extension of 50% recurrence free interval compared with the sole branched-chain amino acid administration group ([1]; peretinoin and branched-chain amino acid combination groups (600 mg and 300 mg)) | hepatocellular carcinoma recurrence rate ([1]; peretinoin in combination with branched-chain amino acid) | liver disorders / adverse side effects [2] | recurrence of hepatocellular carcinoma after radical treatment ([2]; long-term administration for one year) | apoptosis of liver cancer cells (liver cancer cells)
1 | CC(C)=CCC/C(C)=C/CC/C(C)=C/C=C/C(C)=C/C(=O)O [peretinoin, (2E,4E,6E,10E)-3,7,11,15-tetramethylhexadeca-2,4,6,10,14-pentaenoic acid] | >730 | 415 | 227 | remarkable improvement | significantly improved | >730 | 705 | 517 | more than double | reduce | substantially no liver disorders | significantly inhibited | –
2 | CC(C)=CCC/C(C)=C/CC/C(C)=C/CC/C(C)=C/C(=O)O [geranylgeranoic acid] | – | – | – | – | – | – | – | – | – | – | – | – | induce apoptosis
